Consider 18 molecules from US8349893B2, “4-trimethylammonio-butyrates as CPT2 inhibitors” (Hoffmann-La Roche Inc., priority 2008, dated 2013).

The target in one assay is T1, hCPT2 (Homo sapiens, UniProt P23786).
T1 construct: made in house; host or cells: Pichia pastoris strain X-33 (pGAPZB/pGAPZA), crude cell-free extract
T1 sequence (P23786 26-658): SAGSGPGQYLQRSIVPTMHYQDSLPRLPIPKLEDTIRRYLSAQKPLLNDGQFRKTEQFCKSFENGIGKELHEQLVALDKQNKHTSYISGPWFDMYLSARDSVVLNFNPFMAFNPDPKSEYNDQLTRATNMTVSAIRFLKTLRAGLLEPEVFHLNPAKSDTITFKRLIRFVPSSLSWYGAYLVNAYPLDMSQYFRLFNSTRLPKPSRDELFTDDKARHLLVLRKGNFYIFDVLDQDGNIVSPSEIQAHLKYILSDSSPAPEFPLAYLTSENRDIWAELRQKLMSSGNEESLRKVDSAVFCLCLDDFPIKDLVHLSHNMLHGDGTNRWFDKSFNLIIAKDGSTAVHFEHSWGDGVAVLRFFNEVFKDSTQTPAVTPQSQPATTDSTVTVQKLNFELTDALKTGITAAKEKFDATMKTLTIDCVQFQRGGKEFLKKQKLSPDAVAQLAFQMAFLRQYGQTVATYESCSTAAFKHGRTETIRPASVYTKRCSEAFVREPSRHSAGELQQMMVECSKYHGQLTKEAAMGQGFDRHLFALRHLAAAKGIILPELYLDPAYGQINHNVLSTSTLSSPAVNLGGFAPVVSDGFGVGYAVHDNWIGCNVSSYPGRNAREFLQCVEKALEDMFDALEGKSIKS
The assay can be described thus: hCPT2 inhibition (spectrophotometric DTNB CPT activity assay). The settings on record: human CPT2 expressed in P. pastoris, cell extract; carnitine 500 μM, palmitoyl-CoA 80 μM, DTNB 300 μM. The format is biochemical. Here is the method: (§1) The following tests were carried out in order to determine the activity of the compounds of the present invention. Background information on the performed assays can be found in: Jackson et al., 1999, Biochem. J. 341, 483-489 and Jackson et al., 2000, J. Biol. Chem. 275, 19560-19566.
(§2) Human and rat CPT2- and liver CPT1 cDNAs, and human muscle CPT1 cDNA were subcloned in pGAPZB or pGAPZA, respectively. These plasmids were used to transform P. pastoris strain X-33 via electroporation after the preparation of electrocompetent cells. High copy number clones were selected where necessary using 0.5 or 1 mg/ml Zeocin. Cultures for activity measurements were induced for 16 h in YPD medium (1% yeast extract, 2% peptone, 2% glucose). Crude cell extracts were prepared by disrupting the cells with glass beads or French Press, depending on fermenter sizes. After centrifugation, the cell-free extracts were resuspended in cell breaking buffer (50 mM Tris, pH7.4, 100 mM KCl, 1 mM EDTA) in the presence of a protease inhibitor cocktail, before aliquoting and freezing at −20° C.
(§3) CPT activity was measured using a spectrophotometric assay using 5,5′-dithio-bis-(2-nitrobenzoic acid) (DTNB) also called Ellman's reagent. The HS-CoA released on the formation of acylcarnitine from carnitine (500 μM) and palmitoyl-CoA (80 μM) reduced DTNB (300 μM) forming 5-mercapto-2-nitrobenzoic acid which absorbed at 410 nm with a molar extinction coefficient of 13600 M^−1 cm^−1. The assay buffer contained 120 mM KCl, 25 mM Tris, pH 7.4, 1 mM EDTA. This assay was used for the identification of CPT inhibitors, particularly/preferentially CPT2-selective inhibitors, versus the liver and muscle CPT1 isoforms.

The target in a further assay is T2, hL-CPT1 (Homo sapiens, UniProt P50416).
T2 construct: made in house; host or cells: Pichia pastoris strain X-33 (pGAPZB/pGAPZA), crude cell-free extract
T2 sequence (P50416 1-773): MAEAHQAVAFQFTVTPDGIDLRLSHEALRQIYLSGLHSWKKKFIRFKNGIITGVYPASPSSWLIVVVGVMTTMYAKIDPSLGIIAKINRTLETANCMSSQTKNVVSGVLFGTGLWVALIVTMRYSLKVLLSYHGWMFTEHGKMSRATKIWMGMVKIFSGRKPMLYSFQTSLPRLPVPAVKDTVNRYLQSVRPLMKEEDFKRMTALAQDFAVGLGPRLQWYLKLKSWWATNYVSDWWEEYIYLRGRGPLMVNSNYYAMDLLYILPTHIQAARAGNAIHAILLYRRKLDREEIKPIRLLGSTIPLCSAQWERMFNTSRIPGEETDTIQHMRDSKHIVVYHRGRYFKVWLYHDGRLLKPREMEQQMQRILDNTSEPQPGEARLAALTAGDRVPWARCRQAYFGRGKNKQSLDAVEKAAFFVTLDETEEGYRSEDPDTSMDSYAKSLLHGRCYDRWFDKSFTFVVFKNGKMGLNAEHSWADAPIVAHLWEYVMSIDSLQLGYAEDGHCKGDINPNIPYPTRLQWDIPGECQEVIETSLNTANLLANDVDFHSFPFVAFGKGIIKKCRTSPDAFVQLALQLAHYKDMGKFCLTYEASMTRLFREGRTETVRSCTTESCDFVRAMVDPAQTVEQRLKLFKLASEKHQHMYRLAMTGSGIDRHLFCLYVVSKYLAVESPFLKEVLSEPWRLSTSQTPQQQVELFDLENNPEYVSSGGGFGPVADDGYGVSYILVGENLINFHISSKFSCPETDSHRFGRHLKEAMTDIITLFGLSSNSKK
The experiment in a line: hL-CPT1 inhibition (spectrophotometric DTNB CPT activity assay). The settings on record: human liver CPT1 expressed in P. pastoris, cell extract; carnitine 500 μM, palmitoyl-CoA 80 μM, DTNB 300 μM. In kind it is biochemical. Here is the method: as §1, §2, §3

With `C[N+](C)(C)C[C@@H](CC(=O)[O-])NC(=O)CCCCCCCc1ccccc1` [Example 31, (R)-3-(8-phenyl-octanoylamino)-4-trimethylammonio-butyrate], the IC50 was 538 nM on hCPT2 and 1380 nM on hL-CPT1.

For the molecule `C[N+](C)(C)C[C@@H](CC(=O)[O-])NC(=O)CCCCCCCOCc1cc(F)ccc1F` [Example 2, (R)-3-[8-(2,5-Difluoro-benzyloxy)-octanoylamino]-4-trimethylammonio-butyrate], the IC50 against hCPT2 came to 125 nM; against hL-CPT1, 5630 nM.

Consider `COc1ccc(COCCCCCCCC(=O)N[C@H](CC(=O)[O-])C[N+](C)(C)C)cc1` [Example 8, (R)-3-[8-(4-Methoxy-benzyloxy)-octanoylamino]-4-trimethylammonio-butyrate], for which the IC50 against hCPT2 was determined as 53.7 nM; at hL-CPT1, 7190 nM.

`C[N+](C)(C)C[C@@H](CC(=O)[O-])NC(=O)CCCCCCCOCc1ccc(F)c(F)c1` [Example 1, (R)-3-[8-(3,4-Difluoro-benzyloxy)-octanoylamino]-4-trimethylammonio-butyrate]: the figures for the IC50 against hCPT2 and against hL-CPT1 were 73.2 nM and 2190 nM, respectively.

Turning to `C[N+](C)(C)C[C@@H](CC(=O)[O-])NC(=O)CCCCCCCOCc1ccc(-c2ccccc2)cc1` [Example 9, (R)-3-[8-(Biphenyl-4-ylmethoxy)-octanoylamino]-4-trimethylammonio-butyrate], the IC50 against hCPT2 turned out to be 1.2 nM; on hL-CPT1, 1090 nM.

Regarding `C[N+](C)(C)C[C@@H](CC(=O)[O-])NC(=O)CCCCCCCCCCc1ccccc1` [Example 33, (R)-3-(11-Phenyl-undecanoylamino)-4-trimethylammonio-butyrate], the figures for the IC50 on hCPT2 and at hL-CPT1 were 486 nM and 6080 nM, respectively.

Regarding `C[N+](C)(C)C[C@@H](CC(=O)[O-])NC(=O)CCCCCCCOCc1ccc(C(F)(F)F)cc1` [Example 6, (R)-3-[8-(4-Trifluoromethyl-benzyloxy)-octanoylamino]-4-trimethylammonio-butyrate], the IC50 came to 32.1 nM on hCPT2 and 4340 nM on hL-CPT1.

On to `C[N+](C)(C)C[C@@H](CC(=O)[O-])NC(=O)CCCCCCCOCc1ccc(C(F)(F)F)c(F)c1` [Example 7, (R)-3-[8-(3-Fluoro-4-trifluoromethyl-benzyloxy)-octanoylamino]-4-trimethylammonio-butyrate], for which the IC50 was 32.3 nM at hCPT2 and 2250 nM against hL-CPT1.

Regarding `C[N+](C)(C)C[C@@H](CC(=O)[O-])NC(=O)CCCCCCCCCc1ccc(C(F)(F)F)cc1` [Example 25, (R)-4-Trimethylammonio-3-[10-(4-trifluoromethyl-phenyl)-decanoylamino]-butyrate], the IC50 on hCPT2 turned out to be 125 nM; on hL-CPT1, 3070 nM.

As for `C[N+](C)(C)C[C@@H](CC(=O)[O-])NC(=O)CCCCCCCCCc1ccccc1` [Example 18, (R)-3-(10-Phenyl-decanoylamino)-4-trimethylammonio-butyrate], the IC50 against hCPT2 came to 14.5 nM; at hL-CPT1 it was 621 nM.

On to `C[N+](C)(C)C[C@@H](CC(=O)[O-])NC(=O)CCCCCCCCc1ccccc1` [Example 32, (R)-3-(9-Phenyl-nonanoylamino)-4-trimethylammonio-butyrate], for which the IC50 against hCPT2 turned out to be 246 nM; against hL-CPT1 it was 2370 nM.

As to `C[N+](C)(C)C[C@@H](CC(=O)[O-])NC(=O)CCCCCCCCCc1cccc2ccccc12` [Example 24, (R)-3-(10-Naphthalen-1-yl-decanoylamino)-4-trimethylammonio-butyrate], the IC50 at hCPT2 was found to be 21.2 nM; at hL-CPT1, 3980 nM.

As to `C[N+](C)(C)C[C@@H](CC(=O)[O-])NC(=O)CCCCCCCCCCCc1ccccc1` [Example 34, (R)-3-(12-Phenyl-dodecanoylamino)-4-trimethylammonio-butyrate], the IC50 at hCPT2 stood at 16.6 nM; against hL-CPT1 it was 427 nM.

Consider `C[N+](C)(C)C[C@@H](CC(=O)[O-])NC(=O)CCCCCCCOCc1cccc2ccccc12` [Example 12, (R)-3-[8-(Naphthalen-1-ylmethoxy)-octanoylamino]-4-trimethylammonio-butyrate], for which the IC50 was 41 nM against hCPT2 and > 10000 nM at hL-CPT1.

On to `C[N+](C)(C)C[C@@H](CC(=O)[O-])NC(=O)CCCCCCCCCc1cccc(F)c1` [Example 26, (R)-3-[10-(3-Fluoro-phenyl)-decanoylamino]-4-trimethylammonio-butyrate], for which the values for the IC50 against hCPT2 and against hL-CPT1 were 8.1 nM and 1820 nM, respectively.

Take `C[N+](C)(C)C[C@@H](CC(=O)[O-])NC(=O)CCCCCCCOCc1ccc(F)cc1F` [Example 3, (R)-3-[8-(2,4-Difluoro-benzyloxy)-octanoylamino]-4-trimethylammonio-butyrate]: the IC50 against hCPT2 came to 298 nM; against hL-CPT1 it was 1120 nM.

As to `C[N+](C)(C)C[C@@H](CC(=O)[O-])NC(=O)CCCCCCCCCc1ccsc1` [Example 28, (R)-3-(10-Thiophen-3-yl-decanoylamino)-4-trimethylammonio-butyrate], the figures for the 50% inhibitory concentration (IC50) against hCPT2 and at hL-CPT1 were 20.2 nM and 854 nM, respectively.

Turning to `C[N+](C)(C)C[C@@H](CC(=O)[O-])NC(=O)CCCCCCCOCc1cccc(F)c1` [Example 15, (R)-3-[8-(3-Fluoro-benzyloxy)-octanoylamino]-4-trimethylammonio-butyrate], the IC50 against hCPT2 came out at 29.4 nM; on hL-CPT1, 3250 nM.
